Reference: US20260216184A1 (SHENZHEN NEWDEL BIOTECH CO., LTD., priority 2023, published 2026)
pIC50: −log10 of the molar value.

Columns and labels:
EPHA6 = molecular target: T1, EPHA6 (Homo sapiens, UniProt Q9UF33); test: EPHA6 enzyme activity assay (HTRF); type: biochemical; settings: ATP 25 μM; read-out: IC50 against EPHA6
T1 sequence (Q9UF33 23-1036): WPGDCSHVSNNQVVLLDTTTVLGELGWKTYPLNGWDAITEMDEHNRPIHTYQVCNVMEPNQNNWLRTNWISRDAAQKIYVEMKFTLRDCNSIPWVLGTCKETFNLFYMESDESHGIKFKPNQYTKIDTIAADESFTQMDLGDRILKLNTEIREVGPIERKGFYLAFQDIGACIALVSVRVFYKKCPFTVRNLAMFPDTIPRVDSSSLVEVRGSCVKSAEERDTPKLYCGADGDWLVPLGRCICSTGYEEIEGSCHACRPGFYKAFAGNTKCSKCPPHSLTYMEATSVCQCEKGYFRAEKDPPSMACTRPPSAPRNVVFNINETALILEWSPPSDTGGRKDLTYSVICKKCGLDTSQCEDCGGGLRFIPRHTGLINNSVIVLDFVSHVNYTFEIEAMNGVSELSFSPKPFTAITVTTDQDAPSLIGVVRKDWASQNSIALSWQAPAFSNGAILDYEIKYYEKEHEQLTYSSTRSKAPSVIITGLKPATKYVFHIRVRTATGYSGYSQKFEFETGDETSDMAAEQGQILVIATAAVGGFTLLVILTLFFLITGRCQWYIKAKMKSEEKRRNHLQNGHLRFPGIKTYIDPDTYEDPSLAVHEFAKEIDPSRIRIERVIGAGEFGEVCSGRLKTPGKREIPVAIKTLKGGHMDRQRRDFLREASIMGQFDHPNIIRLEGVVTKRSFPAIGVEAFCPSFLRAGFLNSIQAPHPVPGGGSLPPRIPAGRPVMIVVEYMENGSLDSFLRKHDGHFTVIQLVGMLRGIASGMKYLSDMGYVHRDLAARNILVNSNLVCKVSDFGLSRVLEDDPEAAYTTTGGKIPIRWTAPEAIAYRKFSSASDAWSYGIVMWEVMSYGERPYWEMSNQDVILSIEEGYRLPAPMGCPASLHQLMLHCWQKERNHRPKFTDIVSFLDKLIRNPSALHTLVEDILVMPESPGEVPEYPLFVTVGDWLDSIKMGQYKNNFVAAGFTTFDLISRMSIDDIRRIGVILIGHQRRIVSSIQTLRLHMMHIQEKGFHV
Description: Replicate wells were set for the assay. 2× kinase solution was prepared with 1× kinase reaction buffer (5× buffer, 5 mM MgCl2, 1 mM DTT, H2O, and 1 mM MnCl2). 2.5 μL of EPHA6 (0.5 nM, 08-125, Carna) solution was transferred to a 384 reaction plate.

[1] = test system: UUO-induced renal fibrosis; test: UUO-induced renal fibrosis in mice, H&E staining of kidney tissues; type: in vivo, C57 mice; settings: 10 days
Description: (§1) Modeling a UUO model mouse: C57 mice (male, 8 weeks old, weighing 20-25 g) were purchased from Zhejiang Vital River Laboratory Animal Technology Co., Ltd. After anesthesia, a 1-2 cm incision was made in the left kidney region of the abdomen, and the intestinal tract was carefully removed to expose the ureter. The ureter was ligated with double lines and cut off at the middle position of the double-line ligation. The intestinal tract was recovered, and the incision was stitched.
(§2) All animals were administered orally on the day of surgery. Animals in the sham group and vehicle group were administered a test drug vehicle (5% DMSO+5% Tween80+20% PEG400+70% H2O). All administration solutions were freshly prepared before use. The experiment ended 10 days after the administration.
(§3) The preparation method for the positive drug included weighing pirfenidone into a mortar, adding a small amount of 0.5% CMC-Na, grinding the mixture fully and uniformly, supplementing the mixture with the remaining 0.5% CMC-Na, and mixing well for use.
(§4) At the end of the experiment, the left kidney was taken and placed in 4% PFA for fixation. The kidney was conventionally sectioned and stained 24 h after the fixation.

[2] = test system: UUO-induced renal fibrosis; test: UUO-induced renal fibrosis in mice, Masson staining of collagen fibers in kidney tissues; type: in vivo, C57 mice
Description: as §1, §2, §3, §4

α-SMA = test: UUO-induced renal fibrosis in mice, α-SMA immunohistochemical staining of kidney tissues; type: in vivo, C57 mice
Description: as §1, §2, §3, §4

F4/80 (macrophages) = test: UUO-induced renal fibrosis in mice, F4/80 immunohistochemical staining of kidney tissues; type: in vivo, C57 mice; settings: 10 days
Description: as §1, §2, §3, §4

[3] = Relative body weight change in UUO model mice; type: in vivo, C57 mice; settings: Group 7, 250 mg/kg BID P.O
Description: as §1, §2, §3
Relative body weight change=body weight on day n/body weight on day 0×100%

Structure (SMILES): Cc1c(C#Cc2cnc3ccc(N4CCC(O)CC4)nn23)cccc1C(=O)Nc1cc(Cl)cc(C(F)(F)F)c1 [compound 1, N-(3-chloro-5-(trifluoromethyl)phenyl)-3-((6-(4-hydroxypiperidin-1-yl)imidazo[1,2-b]pyridazin-3-yl)ethynyl)-2-methylbenzamide]
- pIC50 (EPHA6): 7.89
- H&E staining of kidney tissue, compared with the vehicle group ([1]; compound 1 dose groups (3, 10, 30, 100 mg/kg QD P.O)): reduced tubular atrophy, a looser glomerular structure, and no significant thickening of tubular basement membrane
- Masson staining positive area, quantitative analysis ([2]; 3 mpk QD P.O, 10 days (FIG. 3B)): significantly reduce the Masson staining positive area
- Masson staining, collagen deposition in the renal tubular spaces ([2]; 3 mpk, 10 mpk, 30 mpk and 100 mpk groups, QD P.O, 10 days (FIG. 3A)): significant effect in relieving the collagen deposition
- onset dose for treating renal fibrosis ([2]; UUO mice, QD P.O, 10 days): 3 mg/kg
- α-SMA positive area compared with the vehicle group (α-SMA; 3 mpk QD P.O, 10 days, P<0.05 (FIG. 4B)): significantly reduced
- levels of α-SMA compared with the vehicle group (α-SMA; 10 mpk, 30 mpk and 100 mpk QD P.O, 10 days (FIG. 4B)): significantly reduced
- expression levels of macrophages (F4/80) compared with the vehicle group (F4/80 (macrophages); 30 mpk and 100 mpk QD P.O): significantly reduced
- expression levels of macrophages (F4/80) compared with the vehicle group (F4/80 (macrophages); each dose group (3, 10, 30, 100 mpk QD P.O)): reduced expression levels of macrophages

Structure (SMILES): Cc1ccc(=O)n(-c2ccccc2)c1 [pirfenidone]
- Relative body weight change ([3]; day 0): 100 ± 0.00%
- Relative body weight change ([3]; day 1): 90.41 ± 0.25%
- Relative body weight change ([3]; day 2): 89.78 ± 0.81%
- Relative body weight change ([3]; day 3): 88.90 ± 0.75%
- Relative body weight change ([3]; day 4): 90.19 ± 0.85%
- Relative body weight change ([3]; day 5): 91.53 ± 0.62%
- Relative body weight change ([3]; day 6): 91.83 ± 0.85%
- Relative body weight change ([3]; day 7): 89.72 ± 0.68%
- Relative body weight change ([3]; day 8): 90.68 ± 0.85%
- Relative body weight change ([3]; day 9): 93.04 ± 0.66%
- Relative body weight change ([3]; day 10): 96.16 ± 1.10%
- H&E staining of kidney tissue, compared with the vehicle group ([1]; 250 mg/kg BID P.O): a looser glomerular structure and no significant material deposition in the renal tubular spaces
